Test [1] relates to BMP-responsive C2C12 mouse myoblast cells stimulated with BMP4. The test can be described thus: BMP4 cell assay (Id1 promoter-firefly luciferase reporter). It counts as cell-based. The settings on record: Mus musculus; C2C12 cells, BMP4 50 ng/mL, overnight. Here is the method: The BMP4 cell assay were carried out briefly as follows. Stably transfected BMP-responsive C2C12 mouse myoblast cells (containing the Idl promoter-firefly luciferase reporter) were seeded in 96-well plates and incubated overnight with the compounds and BMP4 (50 ng/mL). The cells were then lysed, and cell extracts were then subjected to the firefly luciferase assay using Steady-Glo luciferase assay kit (Promega). The results were normalized to cell titers, as measured using Cell Titer-Glo luminescence assay (Promega). […] Relative activity was quantified by the ratio of firefly to Renilla luciferase activities using the dual luciferase assay kit (Promega).
Background: Reporter assays use an easily measured gene product as a stand-in for the process of interest.

For test [2], the target named is ALK1/ACVRL1 (Homo sapiens, UniProt P37023). The test can be described thus: Kinase assay (33P-ATP filter-binding), ALK1. Type of test: biochemical. The settings on record: read-out: Kinase Selectivity ALK1/ACVRL1. An outline of the steps:
(§1)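 Activity was read by spotting reactions onto P81 ion exchange paper (filter binding) after 2 hours at room temperature with 33P-ATP. Kinase and substrate sat in Hepes pH 7.5 buffer with MgCl2, EGTA, Brij35, BSA, Na3VO4, DTT and 1% DMSO; compound was added 20 minutes before ATP.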

For test [3], the target named is caALK1 (Homo sapiens, UniProt P37023). In words: Subtype analysis, constitutively active caALK1. To be noted: Primary In Vitro Data, constitutively active ALK1. Type of test: cell-based.
Sequence of caALK1 (P37023 whole entry Q201D, form open): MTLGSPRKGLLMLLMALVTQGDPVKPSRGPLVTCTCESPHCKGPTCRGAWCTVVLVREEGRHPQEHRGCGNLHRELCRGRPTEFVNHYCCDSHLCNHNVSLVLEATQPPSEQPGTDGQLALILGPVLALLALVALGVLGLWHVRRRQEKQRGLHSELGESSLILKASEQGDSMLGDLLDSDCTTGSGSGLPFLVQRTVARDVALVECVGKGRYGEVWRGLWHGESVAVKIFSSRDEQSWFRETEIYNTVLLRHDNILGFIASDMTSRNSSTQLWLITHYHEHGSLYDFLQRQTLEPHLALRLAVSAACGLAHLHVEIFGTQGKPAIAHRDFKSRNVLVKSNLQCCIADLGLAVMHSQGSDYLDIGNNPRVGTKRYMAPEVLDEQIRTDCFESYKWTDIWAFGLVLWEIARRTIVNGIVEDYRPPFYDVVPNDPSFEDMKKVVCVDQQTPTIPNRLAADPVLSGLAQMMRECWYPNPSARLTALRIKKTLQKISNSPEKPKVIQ
Test [4] has as its target T1, ALK2 (R206H) (Homo sapiens, UniProt Q04771, R206H).
T1 sequence (Q04771 21-509 R206H): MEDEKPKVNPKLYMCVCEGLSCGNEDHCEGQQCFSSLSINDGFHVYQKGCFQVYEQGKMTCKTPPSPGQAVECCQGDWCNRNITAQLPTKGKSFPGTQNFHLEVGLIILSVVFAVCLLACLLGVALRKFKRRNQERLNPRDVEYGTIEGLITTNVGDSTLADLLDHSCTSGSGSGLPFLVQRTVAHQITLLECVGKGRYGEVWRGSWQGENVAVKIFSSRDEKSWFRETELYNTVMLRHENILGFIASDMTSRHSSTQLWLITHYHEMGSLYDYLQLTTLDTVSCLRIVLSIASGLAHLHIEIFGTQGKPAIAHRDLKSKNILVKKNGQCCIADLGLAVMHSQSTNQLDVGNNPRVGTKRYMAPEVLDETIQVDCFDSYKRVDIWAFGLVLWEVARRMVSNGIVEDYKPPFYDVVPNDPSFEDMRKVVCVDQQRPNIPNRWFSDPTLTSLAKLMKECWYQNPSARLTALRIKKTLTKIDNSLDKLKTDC
The test can be described thus: Kinase assay (33P-ATP filter-binding), ALK2 R206H. It counts as biochemical. To be noted: R206H mutant, 20 mM; read-out: Kinase Selectivity ALK2 (R206H, 20 mM). Here is the method:
(§2) The kinase assays were carried out briefly as follows. Substrate was prepared in Base Reaction Buffer (20 mM Hepes (pH 7.5), 10 mM MgCl2, 1 mM EGTA, 0.02% Brij35, 0.02 mg/ml BSA, 0.1 mM Na3VO4, 2 mM DTT, 1% DMSO). The indicated kinases was delivered into the substrate solution and allowed to gently mix. Next, the specific compound was delivered in DMSO into the kinase mixture by Acoustic technology (Echo550; nanoliter range), and allowed to incubate for 20 minutes at room temperature. Next, ^33P-ATP was delivered into the reaction mixture to initiate the reaction and allowed to incubate at room temperature. After 2 hours, the reactions were spotted onto P81 ion exchange paper and the kinase activity is detected by the filter-binding method.

For test [5], the target named is T2, ALK2 (Q207D) (Homo sapiens, UniProt Q04771, Q207D).
T2 sequence (Q04771 21-509 Q207D): T1 sequence (Q04771 21-509 R206H) with H186R, Q187D
In words: Kinase assay (33P-ATP filter-binding), ALK2 Q207D. To be noted: Q207D mutant, 20 mM; read-out: Kinase Selectivity ALK2 (Q207D, 20 mM). Type of test: biochemical. How it is done:
as §2

Test [6] deals with T3, ALK2/ACVR1 (Homo sapiens, UniProt Q04771).
T3 sequence (Q04771 21-509): T1 sequence (Q04771 21-509 R206H) with H186R
The test can be described thus: Kinase assay (33P-ATP filter-binding), ALK2. It counts as biochemical. The settings on record: 20 mM; read-out: Kinase Selectivity ALK2/ACVR1 (20 mM). Here is the method: as §2

Test [7] deals with ALK3/BMPR1A (Homo sapiens, UniProt P36894). In words: Kinase assay (33P-ATP filter-binding), ALK3. To be noted: 1 mM; read-out: Kinase Selectivity ALK3/BMPR1A (1 mM). Type of test: biochemical. An outline of the steps:
as §1

Test [8] deals with T4, caALK2 (Homo sapiens, UniProt Q04771, Q207D).
T4 construct: expressed in transfected cells; host or cells: C2C12BRA cells (mouse myoblast, BMP-responsive reporter)
T4 sequence (Q04771 21-509 Q207D): T1 sequence (Q04771 21-509 R206H) with H186R, Q187D
The test can be described thus: Subtype analysis, C2C12BRA cells transfected with constitutively active caALK2. It counts as cell-based. The settings on record: Primary In Vitro Data, constitutively active ALK2. How it is done:
The BMP4 cell assay were carried out briefly as follows. Stably transfected BMP-responsive C2C12 mouse myoblast cells (containing the Idl promoter-firefly luciferase reporter) were seeded in 96-well plates and incubated overnight with the compounds and BMP4 (50 ng/mL). The cells were then lysed, and cell extracts were then subjected to the firefly luciferase assay using Steady-Glo luciferase assay kit (Promega). The results were normalized to cell titers, as measured using Cell Titer-Glo luminescence assay (Promega). For subtype analysis, C2C12BRA cells were transiently transfected with plasmids (0.1 μg) expressing constitutively active forms of the BMP type I receptors (caALK2, caALK3 or caALK6) using Lipofectamine kit (Invitrogen) in 96 well plates; 0.1 μg of pRL-TK Renilla luciferase (Promega) was used to control for transfection efficiency. Relative activity was quantified by the ratio of firefly to Renilla luciferase activities using the dual luciferase assay kit (Promega).

SMILES strings stand for the structures. Changes are numbered by the printed parent chain. pIC50: −log10 of the molar value.

Sequence of ALK3/BMPR1A (P36894 24-532): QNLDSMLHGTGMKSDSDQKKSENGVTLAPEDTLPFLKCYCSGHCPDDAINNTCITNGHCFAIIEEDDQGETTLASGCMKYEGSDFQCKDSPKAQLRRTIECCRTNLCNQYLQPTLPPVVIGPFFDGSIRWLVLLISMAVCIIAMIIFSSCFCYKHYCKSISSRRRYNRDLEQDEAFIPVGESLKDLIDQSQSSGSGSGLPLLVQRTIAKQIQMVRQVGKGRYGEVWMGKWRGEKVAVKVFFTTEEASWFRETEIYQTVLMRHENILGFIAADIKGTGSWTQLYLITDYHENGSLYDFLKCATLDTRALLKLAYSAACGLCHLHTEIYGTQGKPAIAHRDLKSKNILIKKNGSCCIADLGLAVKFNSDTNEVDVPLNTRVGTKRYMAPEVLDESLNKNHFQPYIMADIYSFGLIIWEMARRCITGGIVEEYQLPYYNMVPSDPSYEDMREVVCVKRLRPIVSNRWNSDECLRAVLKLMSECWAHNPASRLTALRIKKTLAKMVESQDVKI
Sequence of ALK1/ACVRL1 (P37023 22-503): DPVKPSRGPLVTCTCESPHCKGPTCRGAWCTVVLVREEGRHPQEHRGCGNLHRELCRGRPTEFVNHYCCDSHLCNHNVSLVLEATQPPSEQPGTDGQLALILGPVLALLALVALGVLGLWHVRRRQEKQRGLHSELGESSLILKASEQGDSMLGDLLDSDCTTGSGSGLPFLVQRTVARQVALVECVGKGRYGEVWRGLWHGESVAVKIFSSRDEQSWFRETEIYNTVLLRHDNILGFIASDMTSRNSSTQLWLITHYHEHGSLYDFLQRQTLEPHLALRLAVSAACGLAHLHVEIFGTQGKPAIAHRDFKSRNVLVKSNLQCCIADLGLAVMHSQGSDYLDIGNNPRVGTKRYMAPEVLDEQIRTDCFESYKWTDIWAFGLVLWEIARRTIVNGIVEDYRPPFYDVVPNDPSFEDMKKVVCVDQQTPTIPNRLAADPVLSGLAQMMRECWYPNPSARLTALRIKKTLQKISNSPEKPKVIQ

For the compound `Cc1cc(-c2cnc3cc(-c4ccc(N5CCN(C)CC5)cc4)ccn23)c2cccnc2n1` [Compound 28], the pIC50 in test [1] is 7.18; in test [2] it was 5.92; in test [3], 6.72; in test [4], 6.98; in test [5], 7.10; in test [6] it was 6.94. Moreover, the pIC50 in test [7] was above 8.29; in test [8], 7.36.

For the compound `CN1CCN(c2ccc(-c3ccn4c(-c5ccnc6ncccc56)cnc4c3)cc2)CC1` [Compound 29], the pIC50 was 6.95 in test [1]; 6.12 in test [2]; 6.75 in test [3]; 7.05 in test [4]; 7.11 in test [5]; 7.07 in test [6]. The pIC50 in test [7] was 7.76; in test [8] it was 7.80.

Values taken from patent US10745400B2, “Inhibition of BMP signaling, compounds, compositions and uses thereof” (Vanderbilt University, priority 2018, dated 2020).
